Source: patent publication US10350210B2, “EGFR and ALK dual inhibitor” (PRECEDO PHARMACEUTICALS CO., LTD, priority 2015, dated 2019)

What was measured:
NCI-H2122 = experiment: Growth of cancer cells (Cell Titer-Glo viability), NCI-H2122; assay type: cell-based; conditions: Homo sapiens; NCI-H2122 (wild-type EGFR), 72 hrs
[1] = test system: EGFR protein (wild-type EGFR, A549); experiment: Effect on signaling pathway in cells, A549; assay type: cell-based, human; conditions: 0.03-3 μM, 4 h
Excerpt: In four cell lines (all purchased from ATCC) including non-small cell lung cancer cell line A549 (expressing wild-type EGFR gene), non-small cell lung cancer cell line H1975 (expressing EGFR L858R/T790M double mutant gene), non-small cell lung cancer cell line H3255 (expressing EGFR L858R mutant gene) and non-small cell lung cancer cell line PC-9 (expressing EGFR delE746_A750 mutant gene), the effect of Compound 1 on EGFR or other protein kinases related to signaling pathways of EGFR such as Stat3, AKT, ErK, eIF4E, 4EBP1, P70S6K was assessed by assaying a number of cellular biochemical and functional endpoints. […] The effect of Compound 1 on phosphorylation of Stat3Y705, AKT T308, AKT 5473, Erk T202/204, EGFR Y1068, P70S6K Thr389, eIF4E Ser209, Erk T202/204, 4EBP1 (Thr37/46) in these cell lines was assayed (FIGS. 1a to 1d).

CHO = experiment: Cell growth (Cell Titer-Glo viability), CHO; assay type: cell-based, Chinese hamster; conditions: Cricetulus griseus; CHO Chinese hamster ovary cell, 72 hrs; read-out: GI50
PC-9 = experiment: Growth of cancer cells (Cell Titer-Glo viability), PC-9; assay type: cell-based; conditions: Homo sapiens; PC-9 (EGFR delE746_A750 mutant), 72 hrs
Summary of the method: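 Cells are counted as viable by CellTiter-Glo chemiluminescence. Murine BaF3 lines depend on a stably transfected TEL-fused kinase after IL-3 withdrawal, and the NSCLC lines express mutant EGFR.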

H1975 = experiment: Effect on cell cycle (PI staining, flow cytometer), H1975; assay type: cell-based, human; conditions: H1975 (EGFR L858R/T790M), 24 hours
Excerpt: In order to study which growth phase the cell was halted after administration of the drugs, five cell lines including non-small cell lung cancer cell line A549 (expressing wild-type EGFR gene), non-small cell lung cancer cell line H1975 (expressing EGFR L858R/T790M double mutant gene), non-small cell Lung cancer cell line PC-9 (expressing EGFR delE746_A750 mutant gene), non-small cell lung cancer cell line H3255 (expressing EGFR L858R mutant gene) and non-small cell lung cancer cell NCI-H3122 (expressing ALK gene) were tested for effect of Compound 1 on cell cycle distribution. Two cell lines including non-small cell lung cancer cell NCI-H3122 (expressing ALK gene) and non-small cell lung cancer cell H1975 (expressing EGFR L858R/T790M double mutant gene) were tested for effect of Compound 10 on cell cycle distribution. […]

BaF3-ALK-F1174L = experiment: Cell growth (Cell Titer-Glo viability), BaF3-ALK-F1174L; assay type: cell-based; conditions: Mus musculus; BaF3-ALK-F1174L (mutant ALK F1174L kinase), 72 hrs
Summary of the method: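 Proliferation assay: IL-3-independent BaF3 lines stably expressing TEL-fused human kinase (retroviral MSCV-Puro), plus EGFR-mutant NSCLC lines (HCC827 del19, NCI-H3255 L858R). Read-out: CellTiter-Glo luminescence of viable cells.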

SMILES | GI50 (NCI-H2122) | effect on phosphorylation of EGFR protein and of STAT3, S6K, AKT, ERK, eIF4E [1] | GI50 (CHO) | GI50 (PC-9) | effect on cell cycle distribution (H1975) | GI50 (BaF3-ALK-F1174L)
C=CC(=O)Nc1cc(Nc2ncc(Cl)c(Nc3ccccc3S(=O)(=O)C(C)C)n2)c(OC)cc1N1CCN(CC)CC1 [Compound 1, N-(5-(5-chloro-4-(2-(isopropylsulfonyl)phenylamino)pyrimidin-2-ylamino)-2-(4-ethylpiperazin-1-yl)-4-methoxyphenyl)acrylamide] | 0.009 µM | little effect | 0.2 µM | 0.0007 µM | halt the cells in G0-G1 phase | –
C=CC(=O)Nc1cc(Nc2ncc(Cl)c(Nc3ccccc3S(=O)(=O)C(C)C)n2)c(OC)cc1N1CCCN(C)CC1 [Compound 10, N-(5-(5-chloro-4-(2-(isopropylsulfonyl)phenylamino)pyrimidin-2-ylamino)-4-methoxy-2-(4-methyl-1,4-homopiperazin-1-yl)phenyl)acrylamide] | 0.19 µM | – | 0.99 µM | 0.015 µM | halt the cells in G0-G1 phase | 1.5 µM
